Data from patent US4738929A, “Purified culture of streptomyces galanosa” (Warner-Lambert Company, priority 1986, dated 1988).
In brackets after ≈: the same amount, converted by molar mass.

Tests used:
Bacillus megaterium = test: Microtiter dilution MIC, Bacillus megaterium; format: cell-based; details: Priestia megaterium; Mueller-Hinton broth, 37° C., 16-24 hours; read-out: Minimal Inhibitory Concentration
Experimental: (§1) The compounds of the present invention and their pharmaceutically acceptable salts are useful as antimicrobial agents. The antimicrobial activity of the representative examples of compounds in accordance with the present invention against five species of gram-negative bacteria, seven species of gram-positive bacteria, four species of yeast, and two species of fungi were determined using the microtiter dilution technique. This method is described by T. B. Conrath, "Handbook of Microtiter Procedures," Dynatech Corp., Cambridge, Mass., USA (1972); and T. L. Gavan et al, "Microdilution Test Procedures," in Manual of Clinical Microbiology, E. H. Lennette, Ed., American Soc. for Microbiol., Washington, D.C., U.S.A. (1980).
(§2) Each agent is suspended in a nonaqueous solvent for several minutes to sterilize the compound or, if the compound is completely soluble in water, the aqueous solution is sterilized by passage through a 0.2-0.45 micrometer membrane filter.
(§3) Each well of a sterile 96-well microdilution tray is filled under aseptic conditions with 0.1 ml of Mueller-Hinton broth (for antibacterial tests), or yeast extract-peptone-dextrose or buffered supplemented yeast nitrogen base (for tests with yeasts or fungi).
(§4) […] of the test compound solution is added to each of the eight wells in the first row of the tray. A microdilutor apparatus is used to simultaneously mix the contents of these wells and to transfer aliquots to each succeeding row of cells to obtain a range of serially diluted solutions. The last row of wells is untreated and serves as a control.
(§5) Each well containing broth and test compound is inoculated with about ten microliters of inoculum of the test microorganism. One well in the last row of wells (which is free of test compound) is not inoculated and is used as a sterility control The trays are sealed and incubated at 37° C. for 16-24 hours (for bacteria) or at 28° C. for 36-48 hours (yeasts or fungi). During incubation, the inoculated medium is shaken at 100-140 rpm to increase contact between the microorganism cells and test compounds.
(§6) After the incubation period, each plate is evaluated by determining the lowest concentration of test compound required to inhibit the growth of the microorganism and recorded as a minimal inhibitory concentration (MIC).

Bacillus cereus = test: Microtiter dilution MIC, Bacillus cereus; format: cell-based; details: Mueller-Hinton broth, 37° C., 16-24 hours, read-out: Minimal Inhibitory Concentration
Experimental: as §1, §2, §3, §4, §5, §6

Saccharomyces cerevisiae = test: Microtiter dilution MIC, Saccharomyces cerevisiae; format: cell-based; details: yeasts or fungi, 28° C., 36-48 hours, read-out: Minimal Inhibitory Concentration
Experimental: as §1, §2, §3, §4, §5, §6

Streptococcus pneumoniae = test: Microtiter dilution MIC, Streptococcus pneumoniae; format: cell-based; details: Mueller-Hinton broth, 37° C., 16-24 hours, read-out: Minimal Inhibitory Concentration
Experimental: as §1, §2, §3, §4, §5, §6

Pseudomonas aeruginosa = test: Microtiter dilution MIC, Pseudomonas aeruginosa; format: cell-based; details: Mueller-Hinton broth, 37° C., 16-24 hours, read-out: Minimal Inhibitory Concentration
Experimental: as §1, §2, §3, §4, §5, §6

Rhizopus japonicus = test: Microtiter dilution MIC, Rhizopus japonicus; format: cell-based; details: yeasts or fungi, 28° C., 36-48 hours, read-out: Minimal Inhibitory Concentration
Experimental: as §1, §2, §3, §4, §5, §6

[1] = test system: Schizosaccharomyces pombe; test: Microtiter dilution MIC, Schizosaccharomyces pombe; format: cell-based; details: yeasts or fungi, 28° C., 36-48 hours, read-out: Minimal Inhibitory Concentration
Experimental: as §1, §2, §3, §4, §5, §6

Micrococcus luteus = test: Microtiter dilution MIC, Micrococcus luteus; format: cell-based; details: Mueller-Hinton broth, 37° C., 16-24 hours, read-out: Minimal Inhibitory Concentration
Experimental: as §1, §2, §3, §4, §5, §6

P388 leukemia cell line = test: In vivo antineoplastic activity against transplanted P388 leukemia in mice; details: Days 1-9
Experimental: The in vivo antineoplastic activity of representative compounds of the present invention against the transplanted P388 leukemia cell line in mice was determined in accordance with the protocol given in Geran et al, cited above. The mice were infected intraperitoneally on Day 0 and then administered the indicated doses of the test compounds on Days 1-9.

[2] = test system: L1210 murine leukemia cell line; test: Cytotoxic activity against L1210 murine leukemia in vitro; format: cell-based; details: Mus musculus, 50% inhibition of growth, duplicate tests
Experimental: The antineoplastic activities of representative compounds of the present invention against the L1210 murine leukemia cell line in vitro were determined using the methods detailed by R. I. Geran et al, "Protocols for Screening Chemical Agents and Natural Products Against Animal Tumors and Other Biological Systems," 3rd Edition, Cancer Chemotherapy Reports, Part 3, Vol. 3, pages 1-87 (1972) which is incorporated herein by reference.
The IC50 values are the concentration of compound required to produce 50% inhibition of growth of the cell line.

Rhodotorula aurantiaca = test: Microtiter dilution MIC, Rhodotorula aurantiaca; format: cell-based; details: Buckleyzyma aurantiaca; yeasts or fungi, 28° C., 36-48 hours; read-out: Minimal Inhibitory Concentration
Experimental: as §1, §2, §3, §4, §5, §6

Alcaligenes viscolactis = test: Microtiter dilution MIC, Alcaligenes viscolactis; format: cell-based; details: Mueller-Hinton broth, 37° C., 16-24 hours, read-out: Minimal Inhibitory Concentration
Experimental: as §1, §2, §3, §4, §5, §6

Streptococcus faecalis = test: Microtiter dilution MIC, Streptococcus faecalis; format: cell-based; details: Enterococcus faecalis; Mueller-Hinton broth, 37° C., 16-24 hours; read-out: Minimal Inhibitory Concentration
Experimental: as §1, §2, §3, §4, §5, §6

Staphylococcus aureus = test: Microtiter dilution MIC, Staphylococcus aureus; format: cell-based; details: Mueller-Hinton broth, 37° C., 16-24 hours, read-out: Minimal Inhibitory Concentration
Experimental: as §1, §2, §3, §4, §5, §6

Torulopsis albida = test: Microtiter dilution MIC, Torulopsis albida; format: cell-based; details: Naganishia albida; yeasts or fungi, 28° C., 36-48 hours; read-out: Minimal Inhibitory Concentration
Experimental: as §1, §2, §3, §4, §5, §6

Salmonella typhimurium = test: Microtiter dilution MIC, Salmonella typhimurium; format: cell-based; details: Salmonella enterica, Mueller-Hinton broth, 37° C., 16-24 hours, read-out: Minimal Inhibitory Concentration
Experimental: as §1, §2, §3, §4, §5, §6

Mucor paraciticus = test: Microtiter dilution MIC, Mucor paraciticus; format: cell-based; details: yeasts or fungi, 28° C., 36-48 hours, read-out: Minimal Inhibitory Concentration
Experimental: as §1, §2, §3, §4, §5, §6

Streptococcus pyogenes = test: Microtiter dilution MIC, Streptococcus pyogenes; format: cell-based; details: Mueller-Hinton broth, 37° C., 16-24 hours, read-out: Minimal Inhibitory Concentration
Experimental: as §1, §2, §3, §4, §5, §6

[3] = test system: Escherichia coli (PD-04863); test: Microtiter dilution MIC, Escherichia coli (PD-04863); format: cell-based; details: Mueller-Hinton broth, 37° C., 16-24 hours, read-out: Minimal Inhibitory Concentration
Experimental: as §1, §2, §3, §4, §5, §6

Branhamella catarrhalis = test: Microtiter dilution MIC, Branhamella catarrhalis; format: cell-based; details: Moraxella catarrhalis; Mueller-Hinton broth, 37° C., 16-24 hours; read-out: Minimal Inhibitory Concentration
Experimental: as §1, §2, §3, §4, §5, §6

Structure (SMILES)	MIC (Bacillus megaterium)	MIC (Bacillus cereus)	MIC (Saccharomyces cerevisiae)	MIC (Streptococcus pneumoniae)	MIC (Pseudomonas aeruginosa)	MIC (Rhizopus japonicus)	MIC [1]	MIC (Micrococcus luteus)	% T/C (P388 leukemia cell line; 25 mg/kg/injection)	IC50 [2]	MIC (Rhodotorula aurantiaca)	MIC (Alcaligenes viscolactis)	MIC (Streptococcus faecalis)	MIC (Staphylococcus aureus)	MIC (Torulopsis albida)	MIC (Salmonella typhimurium)	MIC (Mucor paraciticus)	MIC (Streptococcus pyogenes)	MIC [3]	MIC (Branhamella catarrhalis)	also measured
COC(=O)c1ccc(O)c2nc3c(C=O)c(O)c(C)c(O)c3nc12 [Example 3, 6-formyl-4,7,9-trihydroxy-8-methyl-1-phenazinecarboxylic acid, methyl ester]	1000 µg/mL (≈ 3050 µM)	333 µg/mL (≈ 1010 µM)	> 1000 µg/mL	< 0.46 µg/mL	> 1000 µg/mL	> 1000 µg/mL	> 1000 µg/mL	111 µg/mL (≈ 338 µM)	Toxic	0.17 µg/mL (≈ 0.518 µM)	> 1000 µg/mL	333 µg/mL (≈ 1010 µM)	1000 µg/mL (≈ 3050 µM)	> 1000 µg/mL	1000 µg/mL (≈ 3050 µM)	1000 µg/mL (≈ 3050 µM)	1000 µg/mL (≈ 3050 µM)	111 µg/mL (≈ 338 µM)	> 1000 µg/mL	111 µg/mL (≈ 338 µM)	% T/C (P388 leukemia cell line; 3.12 mg/kg/injection): 119%; % T/C (P388 leukemia cell line; 6.25 mg/kg/injection): 130%; % T/C (P388 leukemia cell line; 12.5 mg/kg/injection): 149%
COC(=O)c1ccc(O)c2nc3c(C=NCCN(C)C)c(O)c(C)c(O)c3nc12 [Example 5, 6-[[[2-(dimethylamino)ethyl]imino]methyl]-4,7,9-trihydroxy-8-methyl-1-phenazinecarboxylic acid, methyl ester]	4.1 µg/mL (≈ 10.3 µM)	1.4 µg/mL (≈ 3.51 µM)	111 µg/mL (≈ 279 µM)	< 0.46 µg/mL	111 µg/mL (≈ 279 µM)	111 µg/mL (≈ 279 µM)	37 µg/mL (≈ 92.9 µM)	4.1 µg/mL (≈ 10.3 µM)	–	0.17 µg/mL (≈ 0.427 µM)	111 µg/mL (≈ 279 µM)	4.1 µg/mL (≈ 10.3 µM)	12.3 µg/mL (≈ 30.9 µM)	12.3 µg/mL (≈ 30.9 µM)	333 µg/mL (≈ 836 µM)	12.3 µg/mL (≈ 30.9 µM)	37 µg/mL (≈ 92.9 µM)	4.1 µg/mL (≈ 10.3 µM)	12.3 µg/mL (≈ 30.9 µM)	1.4 µg/mL (≈ 3.51 µM)	% T/C (P388 leukemia cell line; 37.5 mg/kg/injection): 104%; % T/C (P388 leukemia cell line; 75 mg/kg/injection): 113%; % T/C (P388 leukemia cell line; 150 mg/kg/injection): 137%
Cc1c(O)c(C=NCCN(C)C)c2nc3c(O)ccc(C(=O)NCCN(C)C)c3nc2c1O [Example 7, N-[2-(dimethylamino)ethyl]-6-[[[2-(dimethylamino)ethyl]imino]methyl]-4,7,9-trihydroxy-8-methyl-1-phenazinecarboxamide]	333 µg/mL (≈ 733 µM)	111 µg/mL (≈ 244 µM)	1000 µg/mL (≈ 2200 µM)	37 µg/mL (≈ 81.4 µM)	< 1000 µg/mL	333 µg/mL (≈ 733 µM)	111 µg/mL (≈ 244 µM)	37 µg/mL (≈ 81.4 µM)	126%	0.63 µg/mL (≈ 1.39 µM)	111 µg/mL (≈ 244 µM)	4.1 µg/mL (≈ 9.02 µM)	1000 µg/mL (≈ 2200 µM)	333 µg/mL (≈ 733 µM)	1000 µg/mL (≈ 2200 µM)	333 µg/mL (≈ 733 µM)	333 µg/mL (≈ 733 µM)	111 µg/mL (≈ 244 µM)	111 µg/mL (≈ 244 µM)	12.3 µg/mL (≈ 27.1 µM)	% T/C (P388 leukemia cell line; 50 mg/kg/injection): 140%; % T/C (P388 leukemia cell line; 100 mg/kg/injection): 152%; % T/C (P388 leukemia cell line; 200 mg/kg/injection): 166%
Cc1c(O)c(C=O)c2nc3c(O)ccc(C(=O)NCCN(C)C)c3nc2c1O [Example 8, N-[2-(dimethylamino)ethyl]-6-formyl-4,7,9-trihydroxy-8-methyl-1-phenazinecarboxamide]	1000 µg/mL (≈ 2600 µM)	37 µg/mL (≈ 96.3 µM)	> 1000 µg/mL	1000 µg/mL (≈ 2600 µM)	> 1000 µg/mL	> 1000 µg/mL	> 1000 µg/mL	1000 µg/mL (≈ 2600 µM)	205%	0.24 µg/mL (≈ 0.624 µM)	> 1000 µg/mL	4.1 µg/mL (≈ 10.7 µM)	> 1000 µg/mL	1000 µg/mL (≈ 2600 µM)	> 1000 µg/mL	111 µg/mL (≈ 289 µM)	> 1000 µg/mL	1000 µg/mL (≈ 2600 µM)	1000 µg/mL (≈ 2600 µM)	4.1 µg/mL (≈ 10.7 µM)	% T/C (P388 leukemia cell line; 3.12 mg/kg/injection): 113%; % T/C (P388 leukemia cell line; 6.25 mg/kg/injection): 129%; % T/C (P388 leukemia cell line; 12.5 mg/kg/injection): 146%
